The values below come from patent publication EP3454861B1, “BENZOXAZINE OR QUINAZOLINE DERIVATIVES FOR USE IN THE TREATMENT OF ALZHEIMER'S DISEASE” (Biocodex, priority 2016, dated 2017).

Test [1] deals with GFAP. Briefly: ELISA of GFAP in mouse hippocampus after Aβ25-35. The class given is in vivo, souris. The source says:
Le 1^er jour : une version « mélangée » (scrambled) du peptide amyloïde β25-35 (Sc.Aβ, témoin négatif) ou le peptide amyloïde β25-35 (Aβ25-35) est injecté par voie intra-cérébroventriculaire (ICV) (le peptide Aβ25-35 provoque l'intoxication cellulaire). Entre le 1^er jour et le 10^ème jour, les traitements sont administrés une fois par jour par voie intrapéritonéale (IP).
A la fin de la session de rétention d'évitement passif, le 10^ème jour, les animaux sont sacrifiés par décapitation. L'hippocampe et le cortex frontal sont disséqués et congelés dans l'azote liquide. L'hippocampe est utilisé pour mesurer le taux de peroxydation lipidique à l'aide d'une méthode colorimétrique et pour évaluer les taux de 4 marqueurs biochimiques par des tests ELISA. Le cortex est conservé à -80°C en attente d'analyses supplémentaires. Les plasmas sont également conservés en attente d'analyses supplémentaires. Les échantillons biologiques sont jetés après 3 mois.
Pour tous les dosages, les […] sont homogénéisés, après décongélation, dans un tampon Tris (Tris 50 mM, 150 mM NaCl, pH 7,5) et traités par ultrasons pendant 20 secondes. […] Pour chaque dosage, l'absorbance est lue à 450 nm et la concentration est calculée en utilisant la courbe standard. Les résultats sont exprimés en pg ou ng de marqueur par mg de tissu et en pourcentage de solution Sc.Aβ + véhicule. 6 échantillons par groupe (n = 36 kits ELISA) sont dosés en double.
In general terms: ELISA stands for enzyme-linked immunosorbent assay.

For test [2], the system named is protéine Tau. The test is described as follows: Tau hyperphosphorylation in cortical neurons after Aβ1-42. The test is classed as cell-based, rats. To be noted: Rattus norvegicus, Cortical neurone, Aβ1-42 2,5 µM, 16 h (Aβ1-42 alone 183%), read-out: hyperphosphorylation de Tau. As for the experimental part: Des neurones corticaux de rats sont mis en culture comme dans la méthode décrite par Singer (1999) J. Neurosci. 19:2455-2463. Des rats femelles enceintes de 15 jours sont tuées par dislocation des cervicales (Rats Wistar, Janvier) et le fœtus est retiré de l'utérus. Les cortex sont prélevés et placés dans un milieu glacé de Leibovitz (L15, Panbiotech, Réf : P04-27055, lot : 9310614) contenant 2% de pénicilline (10 000 U/ml) et de streptomycine (10 mg/ml) (PS, Panbiotec, Réf : P06-07100, lot : 48101114) et 1% de sérum-albumine bovine (BSA, Panbiotech, Réf : P06-1391100, lot : H140603). Les cortex sont dissociés par trypsination (0,05% Panbiotech, Réf : P10-023100, lot : 5890314) pendant 20 minutes à 37°C. La réaction est stoppée par addition d'un milieu Eagle modifié de Dulbecco (DMEM, Panbiotech, réf P04-03600, lot : 9670913) contenant de la DNase I grade Il (0,1 mg/ml Panbiotech, Réf : P60-37780100, lot : H140508) et 10 % de sérum de veau fœtal (FCS, Invitrogen, Réf : 10270 à 098, lot : 41Q4120K). Les cellules sont dissociées mécaniquement par 3 passages à travers une pipette de 10 ml. Les cellules sont ensuite centrifugées à 515 g pendant 10 minutes à 4°C. Le surnageant est éliminé et les cellules sont remises en suspension dans un milieu de culture Neurobasal (Nb, Invitrogen, Réf : 21103, lot : 1608692) supplémenté avec 2% de B27 (Invitrogen, Réf : 17504, lot : 1589889), 2 mM de L-glutamine (Panbiotech, Réf : P04-80100, lot : 6620314), 2% de la solution PS et 10 ng/ml de facteur neurotrophique dérivé du cerveau (BDNF, PanBiotech, Réf : CB-1115002, lot : 4810114). Les cellules sont ensemencées à une densité de 30 000 cellules/puits dans des plaques de 96 puits pré-enduites de poly-L-lysine (10 ng/ml, Greiner Réf : 655930, lot : E14021HD) et cultivées à 37 °C dans une atmosphère humidifiée avec 95% d'air et 5% de CO2 pour l'évaluation de la survie des neurones (analyse de MAP2 par immuno-coloration) (6 puits/condition, 1 culture).
La préparation du peptide amyloïde β1-42 (Aβ1-42) est réalisée en suivant la procédure par Callizot et al. (2013) Neurosci. Res. 91:706-16. […]

On to `CCNC1=Nc2ccc(Cl)cc2C(C)(c2ccccc2)O1` (stereo not drawn) [Etifoxine, chlorhydratede 6-chloro-2-éthylamino-4-méthyl-4-phényl-4H-[3,1]benzoxazine], for which the figures for the “Expression GFAP” value in test [1] (Aβ25-35/Etifoxine 12.5 mg/kg IP), in test [1] (Aβ25-35/Etifoxine 25 mg/kg IP) and in test [1] (Aβ25-35/Etifoxine 50 mg/kg IP) were 160,4 ± 10,2 % de Sc.Aβ/V, 131,7 ± 4,3 % de Sc.Aβ/V and 129,8 ± 2,7 % de Sc.Aβ/V, respectively. For the same compound, the activity at 1 µM in test [2] (étifoxine 1 µM) was 114%. The activity at 3 µM in test [2] (étifoxine 3 µM) amounted to 104%. Besides, the activity at 10 µM in test [2] (étifoxine 10 µM) was found to be 97.4%.
